Data from patent publication US20240366579A1, “PHARMACEUTICAL COMPOSITION COMPRISING GPR40 AGONIST AND SGLT-2 INHIBITOR” (ILDONG PHARMACEUTICAL CO., LTD., priority 2021, published 2024).

System: Sprague-Dawley (SD) rats
Assay: oral glucose tolerance test (OGTT) in SD rats, reduction rate in blood glucose AUC relative to vehicle
Format: in vivo, rat
Conditions: male SD rats
Experimental: In this experiment, the compound represented by Formula 1 was prepared by the method described in Example 5 of Korean Patent Laid-Open Publication No. 10-2018-0069718 and dapagliflozin (HY-10450, MedChemExpress Co., Ltd.) was used. As a control group, a vehicle (0.5% carboxymethyl cellulose (CMC)) was used.
After at least 1 week of acclimatization of 8 to 10 week-old male Sprague-Dawley (SD) rats, an oral glucose tolerance test (OGTT) was performed using healthy rats.
After 16 hours of fasting, the rats were randomly divided into groups each having 5 rats similar in body weight and blood glucose level, followed by administration of the vehicle (0.5% carboxymethyl cellulose (CMC)), 0.3 mg/kg of the compound represented by Formula 1 alone, 0.1 mg/kg of dapagliflozin alone, or a combination of 0.3 mg/kg of the compound represented by Formula 1 and 0.1 mg/kg of dapagliflozin. One hour after administration of each of the drugs, glucose (2 g/kg) was intraperitoneally injected at a dose of 10 ml/kg. Blood glucose level was measured 60 minutes before glucose injection and 0, 15, 30, 60, and 120 minutes after glucose injection through puncture of the caudal vein using a blood glucose meter (Gluco DR. Almedicus. Co. Ltd.). Results were expressed by a reduction rate (%) in area under the blood glucose curve (AUC) relative to administration of the vehicle.
Results of measuring AUC from 0 to 60 min and from 0 to 120 min after glucose injection according to the above method are shown in Table 1 and FIG. 1.
An experiment was conducted in the same manner as in Example 1 except that 0.3 mg/kg of empagliflozin (HY-15409, MedChemExpress Co., Ltd.) was used instead of 0.1 mg/kg of dapagliflozin.

[1] = Example 1, 0.3 mg/kg alone, 1 h before glucose 2 g/kg
[2] = Example 2, Formula 1 0.3 mg/kg alone
[3] = Example 1, 0.1 mg/kg alone, 1 h before glucose 2 g/kg
[4] = Example 2, empagliflozin 0.3 mg/kg alone

## CC#C[C@@H](CC(=O)O)c1ccc(O[C@@H]2CCc3c(-c4ccc(O[C@@H]5CCOC5)nc4)ccc(F)c32)cc1 [Compound of Formula 1, (S)-3-(4-(((R)-7-fluoro-4-(6-(((R)-tetrahydrofuran-3-yl)oxy)pyridin-3-yl)-2,3-dihydro-1H-inden-1-yl)oxy)phenyl)hex-4-ynoic acid]
[1]
  reduction rate (%) in area under the blood glucose curve AUC (0-60 min) relative to vehicle: 17.9%
  reduction rate (%) in area under the blood glucose curve AUC (0-120 min) relative to vehicle: 18.1%
[2]
  reduction rate (%) in area under the blood glucose curve AUC (0-60 min) relative to vehicle: 21.3%
  reduction rate (%) in area under the blood glucose curve AUC (0-120 min) relative to vehicle: 21.6%

## CCOc1ccc(Cc2cc([C@@H]3O[C@H](CO)[C@@H](O)[C@H](O)[C@H]3O)ccc2Cl)cc1 [Dapagliflozin, dapagliflozin]
[3]
  reduction rate (%) in area under the blood glucose curve AUC (0-60 min) relative to vehicle: 9.8%
  reduction rate (%) in area under the blood glucose curve AUC (0-120 min) relative to vehicle: 6.7%

## OC[C@H]1O[C@@H](c2ccc(Cl)c(Cc3ccc(O[C@H]4CCOC4)cc3)c2)[C@H](O)[C@@H](O)[C@@H]1O [Empagliflozin, empagliflozin]
[4]
  reduction rate (%) in area under the blood glucose curve AUC (0-60 min) relative to vehicle: 5.5%
  reduction rate (%) in area under the blood glucose curve AUC (0-120 min) relative to vehicle: 4.0%
